Results published in ChEMBL document CHEMBL1138436, “Biological activity and chemistry of taxoids from the Japanese yew, Taxus cuspidata” (J Nat Prod, 2004).

Columns and labels:
Type in all cases: functional
NCI-H226 = test: Growth inhibition of human NCI-H226 cells
HT-29 = test: Growth inhibition of human HT-29 cells
MCF7 = test: Growth inhibition of human MCF7 cells
[1] = Growth inhibition of human BSY1 cells
DMS-273 = test: Growth inhibition of human DMS273 cells
OVCAR-5 = test: Growth inhibition of human OVCAR5 cells
SF-268 = test: Growth inhibition of human SF268 cells
MKN-74 = test: Growth inhibition of human MKN74 cells
U-251 = test: Growth inhibition of human U251 cells
MKN-28 = test: Growth inhibition of human MKN28 cells
MKN-45 = test: Growth inhibition of human MKN45 cells
SNB-78 = test: Growth inhibition of human SNB78 cells
St-4 = test: Growth inhibition of human St-4 cells
NCI-H522 = test: Growth inhibition of human NCI-H522 cells
SK-OV-3 = test: Growth inhibition of human SKOV3 cells
[2] = Growth inhibition of human HBC5 cells
OVCAR-3 = test: Growth inhibition of human OVCAR-3 cells
HCT-15 = test: Growth inhibition of human HCT15 cells
SF-539 = test: Growth inhibition of human SF539 cells
OVCAR-8 = test: Growth inhibition of human OVCAR8 cells
HCT-116 = test: Growth inhibition of human HCT116 cells
DMS-114 = test: Growth inhibition of human DMS114 cells
DU-145 = test: Growth inhibition of human DU145 cells
MDA-MB-231 = test: Growth inhibition of human MDA-MB-231 cells
LOX IMVI = test: Growth inhibition of human LOXIMVI cells
KM12 = test: Growth inhibition of human KM12 cells
PC-3 = test: Growth inhibition of human PC3 cells
[3] = read-out: LC50 (the source's name)
[4] = read-out: pLC50 (the source's name) (converted)

## CC(=O)O[C@H]1C[C@H]2OC[C@@]2(OC(C)=O)[C@H]2[C@H](OC(=O)c3ccccc3)[C@]3(O)C[C@H](O)C(C)=C([C@@H](O)[C@H](O)[C@]12C)C3(C)C [TAXUSPINE E]
NCI-H226; read-out: GI50
  GI50: 32 µM
NCI-H226; [3]
  CC50: > 100 µM
NCI-H226; read-out: TGI
  TGI: > 100 µM
NCI-H226; read-out: pGI50 (converted)
  GI50: 32.4 µM
NCI-H226; [4]
  CC50: 100 µM
NCI-H226; read-out: pTGI (converted)
  TGI: 100 µM
HT-29; read-out: GI50
  GI50: 28 µM
HT-29; [3]
  CC50: > 100 µM
HT-29; read-out: TGI
  TGI: > 100 µM
HT-29; read-out: pGI50 (converted)
  GI50: 27.5 µM
HT-29; read-out: pTGI (converted)
  TGI: 100 µM
MCF7; read-out: GI50
  GI50: 24 µM
MCF7; [3]
  CC50: > 100 µM
MCF7; read-out: TGI
  TGI: 93 µM
MCF7; read-out: pGI50 (converted)
  GI50: 24 µM
MCF7; [4]
  CC50: 100 µM
MCF7; read-out: pTGI (converted)
  TGI: 93.3 µM
[1]; BSY-1, read-out: GI50
  GI50: 30 µM
[1]; BSY-1, read-out: LC50 (the source's name)
  CC50: > 100 µM
[1]; BSY-1, read-out: TGI
  TGI: > 100 µM
[1]; BSY-1, read-out: pGI50 (converted)
  GI50: 30.2 µM
[1]; BSY-1, read-out: pLC50 (the source's name) (converted)
  CC50: 100 µM
[1]; BSY-1, read-out: pTGI (converted)
  TGI: 100 µM
DMS-273; read-out: GI50
  GI50: 22 µM
DMS-273; [3]
  CC50: > 100 µM
DMS-273; read-out: TGI
  TGI: > 100 µM
DMS-273; read-out: pGI50 (converted)
  GI50: 22.4 µM
DMS-273; read-out: pTGI (converted)
  TGI: 100 µM
OVCAR-5; read-out: GI50
  GI50: 48 µM
OVCAR-5; [3]
  CC50: > 100 µM
OVCAR-5; read-out: TGI
  TGI: > 100 µM
OVCAR-5; read-out: pGI50 (converted)
  GI50: 47.9 µM
OVCAR-5; [4]
  CC50: 100 µM
OVCAR-5; read-out: pTGI (converted)
  TGI: 100 µM
SF-268
  TGI: > 100 µM
SF-268; read-out: GI50
  GI50: 74 µM
SF-268; [3]
  CC50: > 100 µM
SF-268; read-out: pGI50 (converted)
  GI50: 74.1 µM
SF-268; [4]
  CC50: 100 µM
MKN-74; read-out: GI50
  GI50: 30 µM
MKN-74; [3]
  CC50: > 100 µM
MKN-74; read-out: TGI
  TGI: > 100 µM
MKN-74; read-out: pGI50 (converted)
  GI50: 30.2 µM
MKN-74; [4]
  CC50: 100 µM
MKN-74; read-out: pTGI (converted)
  TGI: 100 µM
U-251
  TGI: > 100 µM
U-251; read-out: GI50
  GI50: 36 µM
U-251; [3]
  CC50: > 100 µM
U-251; read-out: pGI50 (converted)
  GI50: 36.3 µM
MKN-28; read-out: GI50
  GI50: 31 µM
MKN-28; [3]
  CC50: > 100 µM
MKN-28; read-out: TGI
  TGI: > 100 µM
MKN-28; read-out: pGI50 (converted)
  GI50: 30.9 µM
MKN-28; [4]
  CC50: 100 µM
MKN-28; read-out: pTGI (converted)
  TGI: 100 µM
MKN-45; read-out: GI50
  GI50: 27 µM
MKN-45; [3]
  CC50: > 100 µM
MKN-45; read-out: TGI
  TGI: > 100 µM
MKN-45; read-out: pGI50 (converted)
  GI50: 26.9 µM
MKN-45; [4]
  CC50: 100 µM
MKN-45; read-out: pTGI (converted)
  TGI: 100 µM
SNB-78; read-out: GI50
  GI50: 50 µM
SNB-78; [3]
  CC50: > 100 µM
SNB-78; read-out: TGI
  TGI: > 100 µM
SNB-78; read-out: pGI50 (converted)
  GI50: 50.1 µM
SNB-78; [4]
  CC50: 100 µM
SNB-78; read-out: pTGI (converted)
  TGI: 100 µM
St-4; read-out: GI50
  GI50: 33 µM
St-4; [3]
  CC50: > 100 µM
St-4; read-out: TGI
  TGI: > 100 µM
St-4; read-out: pGI50 (converted)
  GI50: 33.1 µM
St-4; [4]
  CC50: 100 µM
St-4; read-out: pTGI (converted)
  TGI: 100 µM
NCI-H522; read-out: GI50
  GI50: 15 µM
NCI-H522; [3]
  CC50: > 100 µM
NCI-H522; read-out: TGI
  TGI: 49 µM
NCI-H522; read-out: pGI50 (converted)
  GI50: 15.1 µM
NCI-H522; read-out: pTGI (converted)
  TGI: 49 µM
SK-OV-3; read-out: GI50
  GI50: 68 µM
SK-OV-3; [3]
  CC50: > 100 µM
SK-OV-3; read-out: TGI
  TGI: 100 µM
SK-OV-3; read-out: pGI50 (converted)
  GI50: 69.2 µM
SK-OV-3; [4]
  CC50: 100 µM
SK-OV-3; read-out: pTGI (converted)
  TGI: 100 µM
[2]; read-out: GI50
  GI50: 25 µM
[2]; [3]
  CC50: > 100 µM
[2]; read-out: TGI
  TGI: > 100 µM
[2]; read-out: pGI50 (converted)
  GI50: 25.1 µM
[2]; read-out: pTGI (converted)
  TGI: 100 µM
OVCAR-3; read-out: GI50
  GI50: 21 µM
OVCAR-3; [3]
  CC50: > 100 µM
OVCAR-3; read-out: TGI
  TGI: 99 µM
OVCAR-3; read-out: pGI50 (converted)
  GI50: 20.4 µM
OVCAR-3; [4]
  CC50: 100 µM
OVCAR-3; read-out: pTGI (converted)
  TGI: 100 µM
HCT-15; read-out: GI50
  GI50: 32 µM
HCT-15; [3]
  CC50: > 100 µM
HCT-15; read-out: TGI
  TGI: > 100 µM
HCT-15; read-out: pGI50 (converted)
  GI50: 32.4 µM
HCT-15; [4]
  CC50: 100 µM
HCT-15; read-out: pTGI (converted)
  TGI: 100 µM
SF-539; read-out: GI50
  GI50: 45 µM
SF-539; [3]
  CC50: > 100 µM
SF-539; read-out: TGI
  TGI: > 100 µM
SF-539; read-out: pGI50 (converted)
  GI50: 44.7 µM
SF-539; [4]
  CC50: 100 µM
SF-539; read-out: pTGI (converted)
  TGI: 100 µM
OVCAR-8; read-out: GI50
  GI50: 37 µM
OVCAR-8; [3]
  CC50: > 100 µM
OVCAR-8; read-out: TGI
  TGI: 100 µM
OVCAR-8; read-out: pGI50 (converted)
  GI50: 37.2 µM
OVCAR-8; [4]
  CC50: 100 µM
OVCAR-8; read-out: pTGI (converted)
  TGI: 100 µM
HCT-116
  TGI: > 100 µM
HCT-116; read-out: GI50
  GI50: 30 µM
HCT-116; [3]
  CC50: > 100 µM
HCT-116; read-out: pGI50 (converted)
  GI50: 30.2 µM
HCT-116; [4]
  CC50: 100 µM
DMS-114; read-out: GI50
  GI50: 10 µM
DMS-114; [3]
  CC50: > 100 µM
DMS-114; read-out: TGI
  TGI: 57 µM
DMS-114; read-out: pGI50 (converted)
  GI50: 10 µM
DMS-114; read-out: pTGI (converted)
  TGI: 57.5 µM
DU-145
  TGI: > 100 µM
DU-145; read-out: GI50
  GI50: 33 µM
DU-145; [3]
  CC50: > 100 µM
DU-145; read-out: pGI50 (converted)
  GI50: 32.4 µM
DU-145; [4]
  CC50: 100 µM
MDA-MB-231; read-out: GI50
  GI50: 18 µM
MDA-MB-231; [3]
  CC50: > 100 µM
MDA-MB-231; read-out: pGI50 (converted)
  GI50: 18.2 µM
MDA-MB-231; [4]
  CC50: 100 µM
MDA-MB-231; read-out: pTGI (converted)
  TGI: 100 µM
LOX IMVI; read-out: GI50
  GI50: 35 µM
LOX IMVI; [3]
  CC50: > 100 µM
LOX IMVI; read-out: TGI
  TGI: > 100 µM
LOX IMVI; read-out: pGI50 (converted)
  GI50: 34.7 µM
LOX IMVI; read-out: pTGI (converted)
  TGI: 100 µM
KM12; read-out: GI50
  GI50: 42 µM
KM12; [3]
  CC50: 100 µM
KM12; read-out: TGI
  TGI: > 100 µM
KM12; read-out: pGI50 (converted)
  GI50: 41.7 µM
KM12; [4]
  CC50: 100 µM
KM12; read-out: pTGI (converted)
  TGI: 100 µM
PC-3; read-out: GI50
  GI50: 20 µM
PC-3; [3]
  CC50: > 100 µM
PC-3; read-out: TGI
  TGI: > 100 µM
PC-3; read-out: pGI50 (converted)
  GI50: 20 µM
PC-3; read-out: pTGI (converted)
  TGI: 100 µM
